Reference: patent US10981932B2, “Macrocyclic indole derivatives” (Bayer Aktiengesellschaft, priority 2016, dated 2021)
“And” between values parts separate entries of the source, which are not always exact repeats. Equal entries are not always repeated. Where two headings read alike, the source gives them in different places.

Columns and labels:
MCL-1 = MCL-1 (Homo sapiens, UniProt Q07820); assay: Protein-protein interaction assay MCL-1/Noxa BH3 peptide (MCL-1 assay), TR-FRET; assay type: binding; conditions: MBP-MCL-1 / Noxa BH3-derived peptide, median
Sequence of MCL-1 (Q07820 whole entry): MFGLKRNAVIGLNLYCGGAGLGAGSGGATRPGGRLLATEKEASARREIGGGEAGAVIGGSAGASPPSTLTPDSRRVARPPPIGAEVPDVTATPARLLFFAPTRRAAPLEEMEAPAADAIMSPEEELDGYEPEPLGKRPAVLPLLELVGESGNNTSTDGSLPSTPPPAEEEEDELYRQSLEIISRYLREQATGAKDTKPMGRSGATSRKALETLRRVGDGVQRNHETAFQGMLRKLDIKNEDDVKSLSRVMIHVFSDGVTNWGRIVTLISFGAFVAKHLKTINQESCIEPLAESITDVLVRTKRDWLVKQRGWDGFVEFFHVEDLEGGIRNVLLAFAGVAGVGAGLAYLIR
Protocol: Protein-Protein Interaction Assay: MCL-1/Noxa BH3 Peptide (MCL-1 Assay) […]
In the assay 11 different concentrations of each compound (0.1 nM, 0.33 nM, 1.1 nM, 3.8 nM, 13 nM, 44 nM, 0.15 μM, 0.51 μM, 1.7 μM, 5.9 μM and 20 μM) were typically measured as duplicates in the same microtiter plate. For that, 100-fold concentrated DMSO solutions were prepared by serial dilutions (1:3.4) of a 2 mM stock solution in a clear, 384-well microtiter plate (Greiner Bio-One, Frickenhausen, Germany). From there, 50 ni were transferred in a dark test plate (Greiner Bio-One, Frickenhausen, Germany). The assay was initiated by addition of 2 μl of a 2.5-fold concentrated MBP-MCL-1 solution (usually for a 1 nM end concentration in 5 μl reaction volume) in aqueous assay buffer [50 mM Tris/HCl pH 7, 100 mM sodium chloride (NaCl), 50 mM potassium fluoride (KF), 0.005% Tween-20, 2 mM DTT, 0.1% bovine gamma globulin (BGG)] to the compounds in the assay plate. This was followed by a 10-minute incubation step at 22° C. for pre-equilibration of the putative complex between MBP-MCL-1 and the compounds. After that.
The mixture was incubated in the dark for one hour at 22° C. and then overnight at 4° C. The formation of MCL-1/Noxa complexes was determined by measuring the resonance energy transfer of the anti-MBP- Eu-cryptate antibody to the streptavidin-XL665 present in the reaction. For that purpose, the fluorescence emission at 620 nm and 665 nm after excitation at 330-350 nm was measured in a TR-FRET measuring instrument, for instance a Rubystar or a Pherastar (both from BMG Lab Technologies, Offenburg, Germany) or a Viewlux (Perkin-Elmer). The ratio of the emission at 665 nm and at 622 nm was used as indicator of the amount of MCL-1/NOXA complexes present.
The resulting data (ratio) were normalized, taking 0% inhibition as the mean value of control measurements (usually 32 data points) where all reagents were included. In this case 50 nl DMSO were used instead of compounds. A 100% inhibition corresponded to the mean value of control measurements (usually 32 data points) where all reagents except MCL-1 were included. IC50 values were determined by regression analysis based on a 4 parameter equation (minimum, maximum, IC50, Hill; Y=Max+(Min−Max)/(1+(X/IC50)^Hill) using the Screener Software (Genedata).

SUDHL5 [1] = assay: Induction of caspase-3/7 activity (Caspase-Glo 3/7), SUDHL5; assay type: cell-based; conditions: caspase-3/7 induction, SUDHL5 cells, 3 h treatment, median
Protocol: (§1) Induction of Caspase-317 Activity Upon Treatment of Cells with Selected Compounds
(§2) The BH3-domain of MCL-1 sequesters pro-apoptotic proteins, thereby inhibiting apoptosis. In contrast, MCL-1 inhibitors are expected to antagonize this effect leading to an increase in apoptosis, which can be determined by measuring the activity of caspase-3/7.
(§3) The activity of caspase-3/7 was determined in DLBCL (Diffuse large B-cell lymphoma) cell lines (SUDHL5 and SUDHL10) upon treatment with different compounds, using the Caspase-Glo® 3/7 reagent from Promega (G8092).
(§4) Rim wells were excluded. The cells were incubated for 3 h hours in a humidified incubator at 37° C.
(§5) For the evaluation of the results, the background measured with “medium-only” was subtracted from all other values. […] The Bella DRC Master Sheet was used to calculate EC50s, with fixed C0=1 and CI=plateaulmax induction for the reference compound.

SUDHL10 [2] = assay: Induction of caspase-3/7 activity (Caspase-Glo 3/7), SUDHL10; assay type: cell-based; conditions: caspase-3/7 induction, SUDHL10 cells, 3 h treatment, median
Protocol: as §1, §2, §3, §4, §5

A2780 = assay: Anti-proliferative effect (CellTiter-Glo, 72 h), A2780; assay type: cell-based; conditions: Homo sapiens, A2780, 72 h, A2780 cells, median, read-out: IC50 antiproliferation assay A2780 [M] (median)
Protocol: (§6) Assessment of the Anti-Proliferative Effect of Compounds in Different Cell Lines
(§7) The impact of compounds on the proliferation of different cell lines was assessed using the CellTiter-Glo® Luminescent Cell Viability reagent from Promega (G7573). Of note, SUDHL10 and SUDHL5 (DLBCL), NCI-H929 (Multiple Myeloma), A2780 (ovarian carcinoma) as well as MV-4-11(AML) cells are sensitive to MCL-1 inhibition.
(§8) In parallel, cells were plated in a reference (day 0) plate for time zero determination.
(§9) Rim wells were excluded. The cells were incubated for 72 h hours in a humidified incubator at 37° C. The day 0 plate was measured by adding 30 μl/well of CTG solution (CellTiter-Glo® Luminescent Cell Viability reagent, Promega G7573) to time zero wells in the reference plate followed by a 10 minutes incubation and luminescence reading at 0.1 ms, using the PHERAstar FS microplate reader (BMG Labtech).
(§10) After 72 h incubation, the treated plates were measured in the same way as the day 0 plate mentioned above.

SUDHL5 [3] = assay: Anti-proliferative effect (CellTiter-Glo, 72 h), SUDHL5; assay type: cell-based; conditions: Homo sapiens, SU-DHL-5, 72 h, SUDHL5 cells, antiproliferation, 72 h incubation, median, read-out: Antiproli SUDHL5 [M] (median)
Protocol: as §6, §7, §8, §9, §10

SUDHL5 [4] = assay: Induction of cytotoxicity (CellTiter-Glo, 5 h), SUDHL5
SUDHL10 [5] = assay: Induction of cytotoxicity (CellTiter-Glo, 5 h), SUDHL10
[6] = Homo sapiens, SU-DHL-5, 5 h, read-out: Cytotox SUDHL5 [M] (median), SUDHL5 cells, cytotoxicity induction, CellTiter-Glo, 5 h incubation, median
[7] = Homo sapiens, SU-DHL10, 5 h, read-out: Cytotox SUDHL10 [M] (median), SUDHL10 cells, cytotoxicity induction, CellTiter-Glo, 5 h incubation, median
[8] = read-out: Cytotox SUDHL10 [M] (median), SUDHL10 cells, cytotoxicity induction, CellTiter-Glo, 5 h incubation, median

Cn1nc2c(c1CN1CCOCC1)-c1cccc3c(CCCOc4cccc5ccccc45)c(C(=O)O)n(c13)CCCCOC2 (racemic) [Example 078, (rac)-2-Methyl-3-(morpholin-4-ylmethyl)-7-[3-(naphthalen-1-yloxy)propyl]-2,10,11,12,13,15-hexahydropyrazolo[4′,3′:9,10][1,6]oxazacycloundecino[8,7,6-hi]indole-8-carboxylic Acid]
IC50 (MCL-1): 0.0131 µM | EC50 (SUDHL5 [1]; Homo sapiens, SU-DHL-5, 3 h): 14.1 µM | EC50 (SUDHL10 [2]; Homo sapiens, SU-DHL10, 3 h): > 33 µM | IC50 (A2780): 1.96e-05 M

Cn1nc(COc2ccc(N3CCN(C(=O)OC(C)(C)C)CC3)cc2)c2c1COCCCCn1c(C(=O)O)c(CCCOc3cccc4ccccc34)c3cccc-2c31 (racemic) [Example 1-6, (rac)-3-({4-[4-(tert-butoxycarbonyl)piperazin-1-yl]phenoxy}methyl)-1-methyl-7-[3-(naphthalen-1-yloxy)propyl]-1,10,11,12,13,15-hexahydropyrazolo[4′,3′:9,10][1,6]oxazacycloundecino[8,7,6-hi]indole-8-carboxylic Acid]
IC50 (MCL-1): 0.0187 µM | EC50 (SUDHL5 [1]; Homo sapiens, SU-DHL-5, 3 h): 7.67 µM | EC50 (SUDHL10 [2]; Homo sapiens, SU-DHL10, 3 h): 11.9 µM | IC50 (SUDHL5 [3]): 1.37e-06 M | IC50 (SUDHL5 [4]; [6]): 1.15e-05 M | IC50 (SUDHL10 [5]; [7]): > 3.3e-05 M

Cn1nc(COc2ccccc2)c2c1COCCCCn1c(C(=O)O)c(CCCOc3cccc4ccccc34)c3cccc-2c31 (single isomer, unassigned) [Example 1-79, 1-methyl-7-[3-(naphthalen-1-yloxy)propyl]-3-(phenoxymethyl)-1,10,11,12,13,15-hexahydropyrazolo[4′3′:9,10][1,6]oxazacycloundecino[8,7,6-hi]indole-8-carboxylic Acid]
IC50 (MCL-1): 0.656 µM | EC50 (SUDHL5 [1]; Homo sapiens, SU-DHL-5, 3 h): > 33 µM | EC50 (SUDHL10 [2]; Homo sapiens, SU-DHL10, 3 h): 20.7 µM | IC50 (SUDHL5 [4]; [6]): > 3.3e-05 M | IC50 (SUDHL10 [5]; [7]): 3.09e-05 M

Cn1nc(COCc2ccccc2)c2c1COCC=CCn1c(C(=O)O)c(CCCOc3cccc4ccccc34)c3cccc-2c31 (racemic) [Example 1-94, (rac)-(E/Z)-3-[(benzyloxy)methyl]-1-methyl-7-[3-(naphthalen-1-yloxy)propyl]-1,10,13,15-tetrahydropyrazolo[4′,3′9,10][,6]oxazacycloundecino[8,7,6-hi]indole-8-carboxylic Acid]
IC50 (MCL-1): 0.141 µM | EC50 (SUDHL5 [1]; Homo sapiens, SU-DHL-5, 3 h): > 33 µM | EC50 (SUDHL10 [2]; Homo sapiens, SU-DHL10, 3 h): > 33 µM | IC50 (SUDHL5 [4]; [6]): > 3.3e-05 M | IC50 (SUDHL10 [5]; [7]): > 3.3e-05 M

CC(=O)N1CCN(c2ccc(OCc3nn(C)c4c3-c3cccc5c(CCCOc6cccc7ccccc67)c(C(=O)O)n(c35)CC=CCOC4)cc2)CC1 (racemic) [Example 1-1, (rac)-(E/Z)-3-{[4-(4-acetylpiperazin-1-yl)phenoxy]methyl}-1-methyl-7-[3-(naphthalen-1-yloxy)propyl]-1,10,13,25-tetrahydropyrazolo[4′,3′:9,10][1,6]oxazacycloundecino[8,7,6-hi]indole-8-carboxylic Acid]
EC50 (SUDHL5 [1]; Homo sapiens, SU-DHL-5, 3 h): 14.8 µM | EC50 (SUDHL10 [2]; Homo sapiens, SU-DHL10, 3 h): 22.5 µM | IC50 (SUDHL5 [4]; [6]): > 3.3e-05 M | IC50 (SUDHL10 [5]; [7]): > 3.3e-05 M

Cc1nn(C)c2c1-c1cccc3c(CCCOc4cccc5ccccc45)c(C(=O)O)n(c13)CCCN(c1ccc(N3CCN(S(=O)(=O)N(C)C)CC3)cc1)C2 (single isomer, unassigned; enantiomer 2) [Example 1-107, 7-{4-[4-(Dimethylsulfamoyl)piperazin-1-yl]phenyl}-9,11-dimethyl-1-[3-(1-naphthyloxy)propyl]-4,5,6,7,8,9-hexahydropyrazolo[3′,4′:7,8][1,5]diazecino[9,10,1-hi]indole-2-carboxylic Acid (Enantiomer 2)]
IC50 (MCL-1): 0.0897 µM | EC50 (SUDHL5 [1]): 19.4 µM and > 33 µM | IC50 (SUDHL10 [5]; [8]): 2.89e-05 M and > 3.3e-05 M

Cn1nc(COc2ccccc2)c2c1COCCCCn1c(C(=O)O)c(CCCOc3cccc4ccccc34)c3cccc-2c31 (single isomer, unassigned) [Example 1-80, 1-methyl-7-[3-(naphthalen-1-yloxy)propyl]-3-(phenoxymethyl)-1,10,11,12,13,15-hexahydropyrazolo[4′,3′:9,10][1,6]oxazacycloundecino[8,7,6-hi]indole-8-carboxylic Acid]
IC50 (MCL-1): 0.0501 µM | EC50 (SUDHL5 [1]): > 33 µM | EC50 (SUDHL10 [2]): > 33 µM | IC50 (SUDHL5 [4]; read-out: Cytotox SUDHL5 [M] (median), SUDHL5 cells, cytotoxicity induction, CellTiter-Glo, 5 h incubation, median): > 3.3e-05 M | IC50 (SUDHL10 [5]; [8]): > 3.3e-05 M

Cn1nc(COc2ccc(N3CCNCC3)cc2)c2c1COCC=CCn1c(C(=O)O)c(CCCOc3cccc4ccccc34)c3cccc-2c31 (racemic) [Example 1-2, (rac)-(E/Z)-1-methyl-7-[3-(naphthalen-1-yloxy)propyl]-3-{[4-(piperazin-1-yl)phenoxy]methyl}-1,10,13,15-tetrahydropyrazolo[4′,3′:9,10][1,6]oxazacycloundecino[8,7,6-hi]indole-8-carboxylic Acid]
IC50 (MCL-1): 0.0706 µM | EC50 (SUDHL5 [1]; Homo sapiens, SU-DHL-5, 3 h): > 33 µM | EC50 (SUDHL10 [2]; Homo sapiens, SU-DHL10, 3 h): > 33 µM | IC50 (SUDHL5 [4]; [6]): > 3.3e-05 M | IC50 (SUDHL10 [5]; [7]): > 3.3e-05 M

Cc1ccc2c(CCCOc3cccc4ccccc34)c(C(=O)O)n3c2c1-c1c(nn(C)c1C)COCCCC3 (single isomer, unassigned; enantiomer 1) [Example 076, 2,3,4-trimethyl-7-[3-(naphthalen-1-yloxy)propyl]-2,10,11,12,13,15-hexahydropyrazolo[4′,3′:9,10][1,6]oxazacycloundecino[8,7,6-hi]indole-8-carboxylic Acid (Enantiomer 1)]
IC50 (MCL-1): 0.00145 µM | EC50 (SUDHL5 [1]): 1.32 µM | EC50 (SUDHL10 [2]): 3.54 µM | IC50 (A2780): 2.28e-05 M

CN1CCCn2c(C(=O)O)c(CCCOc3cccc4ccccc34)c3cccc(c32)-c2c(COCc3ccccc3)nn(C)c2C1 (racemic) [Example 1-93, (rac)-11-[(benzyloxy)methyl]-7,9-dimethyl-1-[3-(naphthalen-1-yloxy)propyl]-4,5,6,7,8,9-hexahydropyrazolo[3′,4′:7,8][1,5]diazecino[9,10,1-hi]indole-2-carboxylic Acid]
IC50 (MCL-1): 0.0749 µM | EC50 (SUDHL5 [1]; Homo sapiens, SU-DHL-5, 3 h): > 33 µM | EC50 (SUDHL10 [2]; Homo sapiens, SU-DHL10, 3 h): 31.8 µM | IC50 (SUDHL5 [4]; [6]): > 3.3e-05 M | IC50 (SUDHL10 [5]; [7]): > 3.3e-05 M
